Holding throughout (type): in vivo
The test system of assay [1] is Haemaphysalis longicornis. Description: Test Example 11: coated screw tube against nymphal ticks Haemaphysalis longicornis. As to conditions: 2 mg compound coated on inner wall of screw tube, 5 non-blood-sucking nymphal ticks, after 2 days. As for the experimental part: Each 2 mg of the present compounds 1, 5, 8, 15-16, 19, 23, 25-27, 30, 37, 40, 49, 61, 63, 99 and 516 was put into a screw tube (Maruemu No. 5; 27×55 mm). Acetone (0.2 ml) was added thereto and sealed with a cap. After dissolving the compound in acetone, the screw tube was rotated and inverted to uniformity coat the solution onto the whole inner wall of the tube. After removing the cap, the solution was air-dried for about 2 hours. Then, non-blood-sucking nymphal ticks, Haemaphysalis longicornis (5 ticks/group) were released into the tube, and the tube was sealed with the cap. After 2 days, the number of dead tick was counted, and a death rate was calculated according to the following equation: Death rate (%)=(Number of dead tick/Number of tested tick)×100

A further assay deals with Musca domestica. Description: Test Example 8: filter paper with sucrose bait against Musca domestica. As to conditions: 500 ppm test solution, 0.7 ml on filter paper, 10 female imagoes, after 24 hours. As to the method: Each test solution was prepared by diluting a formulation containing any of the present compounds 1, 3-5, 8, 15-16, 19-20, 23, 27, 29, 37, 40, 44, 48, 60-61, 64, 72, 74, 518, 523 and 528 as obtained in Formulation Example 5, with water so as to give 500 ppm of the concentration of the active ingredient.
A filter paper having a diameter of 5.5 cm was spread on the bottom of a polyethylene cup having a diameter of 5.5 cm and each test solution (0.7 ml) was added dropwise onto the filter paper. As a bait sucrose (30 mg) was uniformly placed on the filter paper. Into the polyethylene cup, 10 female imagoes of Musca domestica were released and the cup was sealed with a lid. After 24 hours, the number of surviving Musca domestica was examined and the death rate of the pest was calculated.

A further assay concerns Blattalla germanica. The assay is described as follows: Test Example 9: filter paper with sucrose bait against Blattalla germanica. The conditions noted are these: 500 ppm test solution, 0.7 ml on filter paper, 2 male imagoes, after 6 days. As for the experimental part: Each test solution was prepared by diluting a formulation containing any of the present compounds 4-5, 19-20, 28-29, 40, 44, 48, 60, 71-74, 89, 523 and 528 as obtained in Formulation Example 5, with water so as to give 500 ppm of the concentration of the active ingredient.
A filter paper having a diameter of 5.5 cm was spread on the bottom of a polyethylene cup having a diameter of 5.5 cm and each test solution (0.7 ml) was added dropwise onto the filter paper. As a bait sucrose (30 mg) was uniformly placed on the filter paper. Into the polyethylene cup, 2 male imagoes of Blattalla germanica were released and the cup was sealed with a lid. After 6 days, the number of surviving Blattalla germanica was examined and the death rate of the pest was calculated.

The values that follow come from patent publication US9353110B2, “Fused heterocyclic compound” (Sumitomo Chemical Company, Limited, priority 2011, dated 2016).

In assay [1], `CCS(=O)(=O)c1cccnc1-c1nc2cc(SC(F)(F)F)ccc2n1C` [compound 63] registered a death rate of 100%.

Consider `CCS(=O)(=O)c1cc(C(F)(F)C(F)(F)F)cnc1-c1nc2cc(C(F)(F)F)cnc2n1C` [compound 72], for which the death rate in the assay with Musca domestica is 100%.

Regarding `CCS(=O)(=O)c1cc(C(F)(F)F)cnc1-c1nc2cc(C(F)(F)C(F)(F)F)cnc2n1C` [compound 19], the death rate (in the assay on Musca domestica; in the assay with Blattalla germanica; in assay [1]) was 100% in each case.

For the compound `CCS(=O)(=O)c1cc(C(F)(F)F)cnc1-c1nc2cc(C(F)(F)F)c[n+]([O-])c2n1C` [compound 48], the death rate in the assay with Musca domestica and in the assay with Blattalla germanica was 100% throughout.

Compound `CCS(=O)(=O)c1cccnc1-c1nc2cc(S(=O)(=O)C(F)(F)F)ccc2n1C` [compound 64] had a death rate with Musca domestica of 100%.

In the case of `CCS(=O)(=O)c1cc(C(F)(F)F)cnc1-c1nc2cc(C(F)(F)F)cnc2n1C` [compound 5], the death rate (with Musca domestica; with Blattalla germanica; in assay [1]) was 100% each time.

For `CCS(=O)(=O)c1cc(C(F)(F)F)cnc1-c1nc2cc(SC(F)(F)F)cnc2n1C` [compound 44], the death rate in the assay with Musca domestica and in the assay with Blattalla germanica was 100% each time.

`CCSc1cc(C(F)(F)F)cnc1-c1nc2cc(SC(F)(F)F)cnc2n1C` [compound 28] yielded a death rate with Blattalla germanica of 100%.

For `CCS(=O)(=O)c1cc(C(F)(F)C(F)(F)F)cnc1-c1nc2cc(C(F)(F)C(F)(F)F)cnc2n1C` [compound 74], the death rate in the assay with Musca domestica and with Blattalla germanica was 100% in each case.

For `CCS(=O)(=O)c1cc(C(F)(F)F)cnc1-c1nc2cc(C(F)(F)C(F)(F)F)ccc2n1C` [compound 40], the death rate (with Musca domestica; in the assay on Blattalla germanica; in assay [1]) was 100% in each case.

Take `CCS(=O)(=O)c1cccnc1-c1nc2cc(C(F)(F)F)cc(S(=O)(=O)CC(F)(F)F)c2n1C` [compound 518]: in the assay with Musca domestica, the death rate is given as 100%.

In assay [1], `CCSc1cccnc1-c1nc2cc(C(F)(F)F)cc(Sc3ccccc3)c2n1C` [compound 516] returned a death rate of 100%.

On to `CCSc1cc(C(F)(F)C(F)(F)F)cnc1-c1nc2cc(C(F)(F)F)cnc2n1C` [compound 71], for which the death rate in the assay with Blattalla germanica turned out to be 100%.

Take `CCS(=O)(=O)c1cccnc1-c1nc2cc([S+]([O-])C(F)(F)F)cnc2n1C` (stereo not shown) [compound 20]: the death rate with Musca domestica and with Blattalla germanica was 100% throughout.

Consider `CCS(=O)(=O)c1cccnc1-c1nc2cc(C(F)(F)F)cnc2n1C` [compound 3], for which the death rate in the assay with Musca domestica was determined as 100%.

For `CCS(=O)(=O)c1cc(C(F)(F)F)cnc1-c1nc2cc(C(F)(F)F)c(N(C)C)nc2n1C` [compound 99], in assay [1], the death rate amounted to 100%.

For the compound `CCSc1cccnc1-c1nc2cc(OC(F)(F)F)ccc2n1C` [compound 49], in assay [1], the death rate came out at 100%.

The compound `CCSc1cccnc1-c1nc2cc(C(F)(F)F)ccc2n1C` [compound 30] came in with a death rate in assay [1] of 100%.

As to `CCS(=O)(=O)c1cc(C(OC)(OC)OC)cnc1-c1nc2cc(C(F)(F)C(F)(F)F)cnc2n1C` [compound 528], the death rate in the assay with Musca domestica and in the assay on Blattalla germanica was 100% throughout.

For `CCS(=O)(=O)c1cccnc1-c1nc2cc(C(F)(F)C(F)(F)F)cnc2n1C` [compound 8], the death rate (in the assay with Musca domestica; in assay [1]) was 100% throughout.

With `CCS(=O)(=O)c1cc(C(F)(F)F)cnc1-c1nc2cc([S+]([O-])C(F)(F)F)cnc2n1C` (stereo not shown) [compound 60], the death rate with Musca domestica and in the assay with Blattalla germanica was 100% each time.

As to `CCS(=O)(=O)c1cccnc1-c1nc2cc(S(=O)(=O)C(F)(F)F)cnc2n1C` [compound 16], the death rate (in the assay on Musca domestica; in assay [1]) was 100% throughout.

In the case of `CCS(=O)(=O)c1cccnc1-c1nc2cc(C(F)(F)C(F)(F)F)ccc2n1C` [compound 27], the death rate (with Musca domestica; in assay [1]) was 100% in each case.

For `CCS(=O)(=O)c1cc(C(F)(F)F)cnc1-c1nc2cc(C(F)(F)C(F)(F)F)c[n+]([O-])c2n1C` [compound 523], the death rate in the assay with Musca domestica and with Blattalla germanica was 100% in each case.

For the compound `CCSc1cccnc1-c1nc2cc(C(F)(F)F)cnc2n1C` [compound 1], the death rate (in the assay with Musca domestica; in assay [1]) was 100% throughout.

In turn, `CCSc1cc(C(F)(F)F)cnc1-c1nc2cc(C(F)(F)F)cnc2n1C` [compound 4] gave a death rate with Blattalla germanica of 100%.

As for `CCSc1cccnc1-c1nc2cc(SC(F)(F)F)ccc2n1C` [compound 61], the death rate (in the assay with Musca domestica; in assay [1]) was 100% in each case.

The compound `CCS(=O)(=O)c1cc(C(F)(F)F)cnc1-c1nc2cc(S(=O)(=O)C(F)(F)F)cnc2n1C` [compound 25] showed a death rate in assay [1] of 100%.

As to `CCS(=O)(=O)c1cc(C(F)(F)F)cnc1-c1nc2cc(C(F)(F)F)c(Cl)nc2n1C` [compound 89], the death rate with Blattalla germanica was found to be 100%.

With `CCS(=O)(=O)c1cccnc1-c1nc2cc(SC(F)(F)F)cnc2n1C` [compound 15], the death rate (with Musca domestica; in assay [1]) was 100% throughout.
